Measurements published in patent US6509377B1, “Use of a 2-hydroxy-4-trifluoromethylbenzoic acid derivatives as inhibitors of the activation of the nuclear transcription factor NF-κB” (J. Uriach & Cia, S.A., priority 1999, dated 2003).

Experiments:
NF-κB = assay: Activation of NF-κB induced by TNF-α in HUVEC (EMSA); assay type: cell-based, human; settings: 2 and 4 mM, TNF-α 100 U/ml, 90 minutes
Description: Human umbilical vein endothelial cells (HUVEC) were obtained by the procedure of Dejana et al. (J. Cell Biol 1987, 104(5), 1403-1411) by treatment of the umbilical vein with. 0.2% collagenase P from C. histolyticum (Boehnnger Manheim GmbH, Manheim, Germany) for 20 minutes at 37° C. Next, cells were cultured in M199 medium (Flow Lab, Herts, U.K.) containing 100 U/ml penicillin, 100 μg/ml streptomycin, 2.5 μg/ml amphotercin B and 20% fetal calf serum. Primary cultures were plated in 25 cm^2 plastic flasks. After 24 hours cells were washed to remove those cells which had not adhered to the flask surface. Then, the same medium containing 10% fetal calf serum, 50 μg/ml endothelial cell growth supplement factor and 100 μg/ml heparn was added. After culturing for 5-7 days, cells reached confluence and were detached from the flask surface with 0.05% trypsin and 0.02% EDTA (Flow Lab). The reaction was inhibited by the addition of fetal calf serum, and then cells were washed and plated again in culture medium. Cells were grown to confluence in gelatin-coated flasks. Cells used for the experiments were from passages 2-7.
In this experiment, HUVEC cells were preincubated with Triflusal and HTB, at concentrations in both cases of 2 and 4 mM. Then these cells were stimulated with 100 U/ml TNF-α (Genzyme Diagnostics, Cambridge, Mass. USA) for 90 minutes. […]

β-actin = assay: Expression of β-actin mRNA in HUVEC (RT-PCR, constitutive control gene); assay type: cell-based, human; settings: 4 mM
Text: Primers used for the detection of VCAM-1 mRNA by RT-PCR were designed from the human gene sequence (EMBUGenBank AC: M30257), using the Wisconsin Package Version 9.1, Genetics Computer Group (GCG), Madison, Wis. Their sequences were 5′-TGTCACTGTMGCTGCMG-3′ and 5′-TTCCAGCCTGGTTAATTC-3′, corresponding to nucleotides 1090-1108 and 1589-1572 (L. Osbom et al., Cell 1989, 59(6), 1203-1211). Total RNA was extracted from cultured cells using the guanidium isothiocyanate method (P. Chomczynski and N. Sacchi, Anal Biochem. 1987, 162(1), 156-159). cDNA first strand was synthesized from total RNA by reverse transcription reaction. […] The relative amounts of each amplified cDNA were determined by measuring the density of the bands stained with ethidium bromide using the Gel Doc documentation system and the Molecular Analyst software from Bio-Rad Laboratories, Hercules, Calif. […]
Specifically, the effect of Triflusal (4 mM) and HTB (4 mM) on the regulation of the expression of VCAM-1 mRNA induced by TNF-α (100 U/ml) in HUVEC was studied. […] The PCR products were separated by electrophoresis in a 1.8% agarose gel and were later quantified. The molecular weight of the amplification products was determined from the electrophoretic migration of DNA size standards.

O=C(O)c1ccc(C(F)(F)F)cc1O [HTB, 2-hydroxy-4-trifluoromethylbenzoic acid]
inhibition of the activation of NF-κB induced by TNF-α (NF-κB): concentration-dependently inhibit | effect on the expression of β-actin mRNA (β-actin): absence of effect

CC(=O)Oc1cc(C(F)(F)F)ccc1C(=O)O [triflusal, 2-Acetyloxy-4-trifluoromethylbenzoic acid, reference compound]
inhibition of the activation of NF-κB induced by TNF-α (NF-κB): concentration-dependently inhibit | effect on the expression of β-actin mRNA (β-actin): absence of effect
